Measurements reported in patent publication US10308662B2, “Thienopyranones as kinase and epigenetic inhibitors” (SignalRx Pharmaceuticals, Inc., priority 2014, dated 2019).

Experiments:
p-AKT(Ser473) = test: Western blot of pAKT in SKNBE(2) cells; format: cell-based, human; details: 24 hrs treatment, 50 ng/ml IGF stimulation
Experimental: (§1) Cells were stimulated with 50 ng/ml IGF for 30 min and used for lysate preparation. Proteins were quantitated by the BCA protein assay (Pierce). Equal amounts of protein were resolved by polyacrylamide gels, transferred to nitrocellulose membrane and probed by Western blot with the following primary antibodies: p-AKT(Ser473), AKT (Cell Signaling Technologies), N-MYC, CyclinD1 and β-actin (Santa Cruz Biotechnology).

BRD4 = BRD4 (Homo sapiens, UniProt O60885); test: BRD4 inhibition assay (region not specified); format: binding
Experimental: The activity of a compound of the invention as an inhibitor of a bromodomain-containing protein, such as a BET protein, such as BRD2, BRD3, BRD4, and/or BRDT, or an isoform or mutant thereof, may be determined in vitro, in vivo, or in a cell line. In vitro assays include assays that determine inhibition of bromodomain-containing proteins. Alternatively, inhibitor binding may be determined by running a competition experiment where a provided compound is incubated with a bromodomain-containing protein, such as a BET protein bound to known ligands, labeled or unlabeled. For example, bromodomain inhibition can be determined in vitro using Alpha Screen Technology (http://www.reactionbiology.com/webapps/site/NewsPDFs/Bromodomain%20Assay%20Platform%20for%20Drug%20Screening%20and%20Discovery.pdf). […] Bromodomain inhibition may also be predicted by in silico modeling as described below in the Examples.
Computational modeling was performed using the commercially available FlexX (http://www.biosolveit.de/FlexX/download/flexx_brochure.pdf) software tools. […] It should be noted that the more negative the number or value of the docking score is, the stronger is the predicted binding energy at the BRD4 site that recognizes the acetyl lysine of chromatin.

MYCN promoter region = test: Brd4 chromatin precipitation with quantitative PCR of MYCN promoter in SKNBE(2) cells; format: cell-based, human; details: 24 hours exposure
Experimental: MYCN amplified SKNBE(2) cells were exposed to inhibitors for 24 hours then chromatin was precipitated with Brd4 (rabbit polyclonal antibody) along with rabbit IgG as a negative control (IgG). Precipitated chromatin was analyzed for the MYCN gene (2 sites within the MYCN promoter region) by quantitative PCR and enrichment is shown as the percentage of total input DNA (FIG. 4). The negative control region primers amplify within a gene desert region approximately 1 Mb away from MYCN (MYC-N NR). Error bars represent±SEM of triplicate data. P<0.05 as compared to positive control (paired t-test).

[1] = system: pAKT serine 473 in PC3 cells; test: Cellular PI3K inhibition, pAKT ELISA in PC3 cells; format: cell-based; details: Homo sapiens, PC-3; IGF-1 stimulated PC3 cells
Experimental: Biological testing of compounds of Formula I. Representative compounds of the invention were tested for cellular PI3K inhibitory activity (as measured by the most robust marker of pathway activity pAKT) in a prostate cancer cell line (PC3), which is summarized in Table 3. […] Two million cells from the prostate cancer line PC3 were placed into 6 cm culture dishes and allowed to grow in complete RPMI 1640 media (Invitrogen, Carlsbad, Calif., Cat.#22400-105) with 10% fetal bovine serum (Invitrogen, Carlsbad, Calif., Cat.#10438-026). After this time period the cells were serum starved for 5 hours followed by application of the test compound. Test compound was added as a DMSO (dimethyl sulfoxide) solution such that the final DMSO concentration in the cell media was less than or equal to 0.2% by volume. After 30 minutes of exposure the growth factor stimulant, human IGF-1 (PeproTech, Inc., Rocky Hill, N.J., Cat.#100-11), was added in each well. After 30 minutes of IGF-1 exposure, cells were removed from the media and cell lysates were prepared using RIPA Lysis buffer (Upstate, Lake Placid, N.Y., Cat.#20-188), keeping on ice. The pAKT serine 473 level was measured in duplicate samples of the cell lysates using commercially available assays such as the Pathscan® Sandwich ELISA kit for Ser473 pAKT (Cell Signaling, Danvers, Mass., Cat.#7160). A SpectraMax Plus spectrophotometric plate reader (Molecular Devices, Sunnydale, Calif.) was used to measure the optical density signal for pAKT at 450 nm (OD450 nm). The pAKT OD450 nm readings were normalized by total protein amount in the cell lysates determined by standard methods.

PI3Kα = PI3Kα (Homo sapiens (Human), UniProt P42336); test: PI3K alpha isoform inhibition; format: biochemical; details: 300 nM
PI3Kα, sequence (P42336 whole entry, canonical isoform): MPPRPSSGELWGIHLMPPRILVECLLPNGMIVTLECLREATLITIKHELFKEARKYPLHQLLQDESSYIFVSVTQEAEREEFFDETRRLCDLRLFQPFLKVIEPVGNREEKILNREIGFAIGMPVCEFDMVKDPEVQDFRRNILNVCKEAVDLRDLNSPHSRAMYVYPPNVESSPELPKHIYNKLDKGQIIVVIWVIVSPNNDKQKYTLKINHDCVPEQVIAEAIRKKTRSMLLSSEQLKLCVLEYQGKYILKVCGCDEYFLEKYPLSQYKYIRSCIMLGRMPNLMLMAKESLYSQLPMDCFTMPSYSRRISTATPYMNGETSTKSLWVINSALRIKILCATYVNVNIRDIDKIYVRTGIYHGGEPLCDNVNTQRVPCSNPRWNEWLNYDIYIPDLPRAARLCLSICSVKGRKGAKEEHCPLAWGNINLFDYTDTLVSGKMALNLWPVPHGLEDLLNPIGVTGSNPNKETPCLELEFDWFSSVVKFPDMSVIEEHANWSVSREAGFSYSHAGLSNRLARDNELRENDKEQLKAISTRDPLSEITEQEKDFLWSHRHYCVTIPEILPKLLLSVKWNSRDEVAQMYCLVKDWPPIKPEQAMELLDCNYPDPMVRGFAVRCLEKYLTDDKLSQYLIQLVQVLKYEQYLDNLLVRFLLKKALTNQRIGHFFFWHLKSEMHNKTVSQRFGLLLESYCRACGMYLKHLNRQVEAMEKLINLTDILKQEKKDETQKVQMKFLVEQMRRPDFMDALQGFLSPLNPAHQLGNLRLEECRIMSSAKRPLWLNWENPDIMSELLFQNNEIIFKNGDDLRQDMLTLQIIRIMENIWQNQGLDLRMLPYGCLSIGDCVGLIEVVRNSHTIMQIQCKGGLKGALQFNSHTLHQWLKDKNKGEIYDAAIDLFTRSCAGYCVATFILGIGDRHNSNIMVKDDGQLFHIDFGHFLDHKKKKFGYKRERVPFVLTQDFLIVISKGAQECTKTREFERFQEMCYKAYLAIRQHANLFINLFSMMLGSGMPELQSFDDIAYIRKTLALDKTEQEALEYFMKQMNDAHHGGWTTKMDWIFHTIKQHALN
PI3Kα, sequence (P27986 whole entry partner, canonical isoform): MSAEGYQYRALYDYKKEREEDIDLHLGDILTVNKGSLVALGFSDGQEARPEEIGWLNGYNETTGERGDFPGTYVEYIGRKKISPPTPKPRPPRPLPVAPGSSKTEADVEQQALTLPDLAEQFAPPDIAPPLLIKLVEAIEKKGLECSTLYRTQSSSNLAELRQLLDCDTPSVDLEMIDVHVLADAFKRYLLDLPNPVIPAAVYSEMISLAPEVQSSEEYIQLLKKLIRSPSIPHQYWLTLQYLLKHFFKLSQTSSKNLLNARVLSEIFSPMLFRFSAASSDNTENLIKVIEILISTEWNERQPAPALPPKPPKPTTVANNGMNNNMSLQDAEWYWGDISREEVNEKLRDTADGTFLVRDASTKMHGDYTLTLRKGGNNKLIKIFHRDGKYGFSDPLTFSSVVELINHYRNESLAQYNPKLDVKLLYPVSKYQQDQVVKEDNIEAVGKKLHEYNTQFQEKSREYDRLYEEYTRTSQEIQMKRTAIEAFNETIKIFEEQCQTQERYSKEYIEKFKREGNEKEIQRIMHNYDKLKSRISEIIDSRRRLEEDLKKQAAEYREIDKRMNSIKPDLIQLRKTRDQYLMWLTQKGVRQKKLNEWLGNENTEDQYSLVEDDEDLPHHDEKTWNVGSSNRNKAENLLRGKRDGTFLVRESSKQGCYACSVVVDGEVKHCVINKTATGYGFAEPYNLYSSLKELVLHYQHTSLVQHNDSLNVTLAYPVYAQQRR

HDAC = HDAC inhibitory activity, commercial kit; format: biochemical; details: for HDAC inhibitory activity: 1, 10, 50 μM
PI3Kγ = PI3Kγ (Homo sapiens (Human), UniProt P48736); test: PI3K gamma isoform inhibition; format: biochemical; details: 300 nM
PI3Kγ, sequence (P48736 whole entry, canonical isoform): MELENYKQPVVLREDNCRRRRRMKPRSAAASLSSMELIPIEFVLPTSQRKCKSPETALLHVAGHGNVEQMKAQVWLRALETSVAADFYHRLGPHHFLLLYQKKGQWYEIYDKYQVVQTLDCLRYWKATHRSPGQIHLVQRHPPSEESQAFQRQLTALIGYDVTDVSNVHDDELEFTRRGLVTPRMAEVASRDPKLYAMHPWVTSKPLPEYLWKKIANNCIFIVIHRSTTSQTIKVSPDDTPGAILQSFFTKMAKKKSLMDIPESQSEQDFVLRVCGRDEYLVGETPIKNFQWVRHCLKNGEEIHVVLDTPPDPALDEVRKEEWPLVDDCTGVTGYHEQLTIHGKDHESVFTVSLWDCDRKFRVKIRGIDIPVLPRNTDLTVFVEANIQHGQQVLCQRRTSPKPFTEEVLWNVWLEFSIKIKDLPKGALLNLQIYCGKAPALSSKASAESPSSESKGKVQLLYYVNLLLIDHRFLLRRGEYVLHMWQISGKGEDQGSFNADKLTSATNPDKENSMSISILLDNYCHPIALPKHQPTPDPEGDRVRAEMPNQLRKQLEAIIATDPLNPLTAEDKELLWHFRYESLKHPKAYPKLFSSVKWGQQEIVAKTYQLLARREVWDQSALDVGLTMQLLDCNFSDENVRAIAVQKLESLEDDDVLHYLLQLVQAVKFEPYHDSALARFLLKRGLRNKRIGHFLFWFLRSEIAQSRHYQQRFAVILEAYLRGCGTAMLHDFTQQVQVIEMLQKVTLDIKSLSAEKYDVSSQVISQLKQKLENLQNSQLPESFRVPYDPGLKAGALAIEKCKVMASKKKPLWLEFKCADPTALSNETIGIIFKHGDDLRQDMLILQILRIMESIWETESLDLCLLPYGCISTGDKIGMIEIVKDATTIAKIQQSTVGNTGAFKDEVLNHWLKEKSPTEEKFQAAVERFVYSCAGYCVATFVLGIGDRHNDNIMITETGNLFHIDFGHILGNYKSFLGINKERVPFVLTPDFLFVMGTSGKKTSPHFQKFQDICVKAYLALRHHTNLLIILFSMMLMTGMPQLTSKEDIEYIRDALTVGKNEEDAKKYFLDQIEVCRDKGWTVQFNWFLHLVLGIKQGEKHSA

PI3Kδ = PI3Kδ (Homo sapiens (Human), UniProt O00329); test: PI3K delta isoform inhibition; format: biochemical; details: 300 nM
PI3Kδ, sequence (O00329 whole entry, canonical isoform): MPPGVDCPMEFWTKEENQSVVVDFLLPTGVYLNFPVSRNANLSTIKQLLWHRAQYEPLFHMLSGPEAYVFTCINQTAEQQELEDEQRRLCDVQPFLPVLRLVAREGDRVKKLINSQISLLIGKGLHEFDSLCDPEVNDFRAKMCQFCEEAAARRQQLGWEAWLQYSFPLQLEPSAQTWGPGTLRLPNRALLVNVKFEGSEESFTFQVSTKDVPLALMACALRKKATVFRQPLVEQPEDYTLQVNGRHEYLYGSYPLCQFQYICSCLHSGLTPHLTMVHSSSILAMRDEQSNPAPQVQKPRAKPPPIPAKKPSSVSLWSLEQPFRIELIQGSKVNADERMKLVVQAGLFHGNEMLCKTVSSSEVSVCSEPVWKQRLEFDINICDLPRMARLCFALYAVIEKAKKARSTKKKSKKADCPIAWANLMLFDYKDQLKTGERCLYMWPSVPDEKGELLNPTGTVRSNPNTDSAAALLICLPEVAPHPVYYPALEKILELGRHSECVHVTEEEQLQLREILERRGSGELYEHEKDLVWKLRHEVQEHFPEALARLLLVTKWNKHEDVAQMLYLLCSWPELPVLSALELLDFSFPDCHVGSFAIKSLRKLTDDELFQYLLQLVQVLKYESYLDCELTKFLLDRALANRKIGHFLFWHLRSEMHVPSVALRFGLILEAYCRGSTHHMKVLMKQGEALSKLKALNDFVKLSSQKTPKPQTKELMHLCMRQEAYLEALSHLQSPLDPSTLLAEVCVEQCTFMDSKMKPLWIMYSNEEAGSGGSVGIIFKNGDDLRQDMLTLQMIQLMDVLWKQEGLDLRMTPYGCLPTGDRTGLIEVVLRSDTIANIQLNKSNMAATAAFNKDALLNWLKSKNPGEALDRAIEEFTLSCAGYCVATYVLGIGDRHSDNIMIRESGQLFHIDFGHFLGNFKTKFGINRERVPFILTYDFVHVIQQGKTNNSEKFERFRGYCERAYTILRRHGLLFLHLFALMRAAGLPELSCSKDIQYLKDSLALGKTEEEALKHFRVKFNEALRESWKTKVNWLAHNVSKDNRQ
PI3Kδ, sequence (P27986 whole entry partner, canonical isoform): as the sequence (P27986 whole entry partner, canonical isoform) above
From the text: (§2) Inhibitory activity can be determined routinely using known methods and also from commercial vendors offering this service for kinases and bromodomain proteins. […] In vivo, PI3K inhibition can be determined from target tissue biopsies by standard tissue processing to disrupt cells and then performing Western Blot analysis to determine the presence or absence of pAKT (substrate of PI3K) relative to a control sample. The activity of a compound of the invention as an inhibitor of a bromodomain-containing protein, such as a BET protein, such as BRD2, BRD3, BRD4, and/or BRDT, or an isoform or mutant thereof, may be determined in vitro, in vivo, or in a cell line. In vitro assays include assays that determine inhibition of bromodomain-containing proteins. Alternatively, inhibitor binding may be determined by running a competition experiment where a provided compound is incubated with a bromodomain-containing protein, such as a BET protein bound to known ligands, labeled or unlabeled. For example, bromodomain inhibition can be determined in vitro using Alpha Screen Technology (http://www.reactionbiology.com/webapps/site/NewsPDFs/Bromodomain%20Assay%20Platform%20for%20Drug%20Screening%20and%20Discovery.pdf). […]

BRD4-1 = BRD4-1 (Homo sapiens (Human), UniProt O60885); details: cited from earlier work
N-MYC = test: Western blot of N-MYC in SKNBE(2) cells; format: cell-based, human; details: 24 hrs treatment, 50 ng/ml IGF stimulation
Experimental: as §1

PI3K = PI3K inhibition (isoform not given); format: biochemical
From the text: as §2

BET bromodomains = details: cited from earlier work
PI-3 kinases = details: cited from earlier work
breast cancer stem cells = details: women with breast tumors with high HER2; decreased from 11%; cited from earlier work

Cn1c(=O)n(-c2ccc(C(C)(C)C#N)cc2)c2c3cc(-c4cnc5ccccc5c4)ccc3ncc21 [BEZ235]
pAKT level by Western blot (p-AKT(Ser473)): decreased pAKT

Nc1cc(C(F)(F)F)c(-c2cc(N3CCOCC3)nc(N3CCOCC3)n2)cn1 [BKM120, reference compound]
pAKT level by Western blot (p-AKT(Ser473)): decreased pAKT | BRD4 inhibition (BRD4): no BRD4 inhibition

CC[C@H](Nc1ncnc2[nH]cnc12)c1nc2cccc(F)c2c(=O)n1-c1ccccc1 [CAL101]
MYCN expression (Brd4-precipitated chromatin, MYCN promoter PCR) (MYCN promoter region): did not | pAKT level by Western blot (p-AKT(Ser473)): decreased pAKT | BRD4 inhibition (BRD4): no BRD4 inhibition

O=c1cc(N2CCOCC2)oc2c(Cc3ccccc3)csc12 [Cmpd 1]
IC50 [1]: 864 nM

O=c1cc(N2CCOCC2)oc2c(-c3ccncc3)csc12 [Cmpd 2]
IC50 [1]: 3030 nM

O=c1cc(N2CCOCC2)oc2c(-c3cccnc3)csc12 [Cmpd 3]
IC50 [1]: 4870 nM

O=c1cc(N2CCOCC2)oc2c(-c3ccco3)csc12 [Cmpd 4]
IC50 [1]: 930 nM

N#Cc1ccc(-c2csc3c(=O)cc(N4CCOCC4)oc23)cc1 [Cmpd 5]
IC50 [1]: 7300 nM

O=c1cc(N2CCOCC2)oc2c(-c3ccccc3)csc12 [Cmpd 6]
IC50 [1]: 550 nM

O=c1cc(N2CCOCC2)oc2c(-c3ccc4c(c3)OCO4)csc12 [Cmpd 7]
IC50 [1]: 540 nM

COc1ccc(-c2csc3c(=O)cc(N4CCOCC4)oc23)cc1 [Cmpd 8]
IC50 [1]: 980 nM

CN(C)c1ccc(-c2csc3c(=O)cc(N4CCOCC4)oc23)cc1 [Cmpd 9]
IC50 [1]: 780 nM

Nc1cccc(-c2csc3c(=O)cc(N4CCOCC4)oc23)c1 [Cmpd 11, 3-(3-Amino-phenyl)-5-morpholin-4-yl-thieno[3,2-b]pyran-7-one]
IC50 [1]: 6320 nM

O=c1cc(N2CCOCC2)oc2c(-c3cc4ccccc4[nH]3)csc12 [Cmpd 12]
IC50 [1]: 1570 nM

O=c1cc(N2CCOCC2)oc2c(-c3cccs3)csc12 [Cmpd 14]
IC50 [1]: 1020 nM

Cc1ccc(-c2csc3c(=O)cc(N4CCOCC4)oc23)cc1 [Cmpd 15]
IC50 [1]: 948 nM

Cc1cccc(-c2csc3c(=O)cc(N4CCOCC4)oc23)c1 [Cmpd 16]
IC50 [1]: 1230 nM

O=c1cc(N2CCOCC2)oc2c(-c3ccc(Cl)cc3)csc12 [Cmpd 17]
IC50 [1]: 1410 nM

O=c1cc(N2CCOCC2)oc2c(-c3ccc(Cl)c(Cl)c3)csc12 [Cmpd 18]
IC50 [1]: 913 nM

O=c1cc(N2CCOCC2)oc2c(-c3ccc4[nH]ccc4c3)csc12 [Cmpd 19]
IC50 [1]: 901 nM

COC(=O)c1scc(-c2csc3c(=O)cc(N4CCOCC4)oc23)c1O [Cmpd 21]
IC50 [1]: 1040 nM

CN1CCOc2cc(-c3csc4c(=O)cc(N5CCOCC5)oc34)ccc21 [Cmpd 22]
IC50 [1]: 609 nM

O=c1cc(N2CCOCC2)oc2c(C#Cc3ccsc3)csc12 [Cmpd 23]
IC50 [1]: 1270 nM

O=c1cc(N2CCOCC2)oc2c(C#CCO)csc12 [Cmpd 24]
IC50 [1]: 4610 nM

O=c1cc(N2CCOCC2)oc2c(-c3ccsc3)csc12 [Cmpd 26]
IC50 [1]: 1560 nM

O=c1cc(N2CCOCC2)oc2c(-c3ccoc3)csc12 [Cmpd 27]
IC50 [1]: 3240 nM

COc1cccc(-c2csc3c(=O)cc(N4CCOCC4)oc23)c1 [Cmpd 29]
IC50 [1]: 1070 nM

COC(=O)c1ccc(-c2csc3c(=O)cc(N4CCOCC4)oc23)cc1 [Cmpd 44, Methyl 4-(5-morpholino-7-oxo-7H-thieno[3,2-b]pyran-3-yl)benzoate]
inhibition at 0.3 µM (PI3Kα): 53% | BRD4 inhibition (BRD4): showed activity against BRD4 regions 1 and 2 | HDAC inhibitory activity (HDAC): No inhibitor activity | inhibition at 0.3 µM (PI3Kγ): 26% | inhibition at 0.3 µM (PI3Kδ): 81%

O=C(NO)c1ccc(-c2csc3c(=O)cc(N4CCOCC4)oc23)cc1 [Cmpd 118]
inhibition at 0.3 µM (PI3Kα): 76% | HDAC activity inhibition versus control (HDAC; 1 μM): 17% | HDAC activity inhibition versus control (HDAC; 10 μM): 25% | HDAC activity inhibition versus control (HDAC; 50 μM): 41% | HDAC inhibitory activity (HDAC): significant HDAC inhibitory activity | inhibition at 0.3 µM (PI3Kγ): 30% | inhibition at 0.3 µM (PI3Kδ): 80%

Cc1c(Cn2c(C)nc3c(C(=O)O)cc(N4CCOCC4)cc32)cccc1C(F)(F)F [GSK2636771]
BRD4-1 inhibition (BRD4-1): some degree of BRD4-1 inhibitory activity

Cc1sc2c(c1C)C(c1ccc(Cl)cc1)=N[C@@H](CC(=O)OC(C)(C)C)c1nnc(C)n1-2 [JQ-1]
MYCN expression (Brd4-precipitated chromatin, MYCN promoter PCR) (MYCN promoter region): significantly repressed MYCN expression | MYCN quantity by Western blot (N-MYC): inhibited only MYCN quantities | PI3K inhibition (PI3K): does not inhibit PI3K

O=c1cc(N2CCOCC2)oc2c(-c3ccccc3)cccc12 [LY294002, 2-(4-morpholinyl)-8-phenyl-4H-1-benzopyran-4-one]
MYCN expression (Brd4-precipitated chromatin, MYCN promoter PCR) (MYCN promoter region): significantly repressed MYCN expression | pAKT level by Western blot (p-AKT(Ser473)): decreased MYCN and pAKT | MYCN quantity by Western blot (N-MYC): decreased MYCN | BET bromodomain inhibition (BET bromodomains): modestly inhibit

O=c1cc(N2CCNCC2)oc2c(-c3ccccc3)cccc12 [LY303511]
MYCN expression (Brd4-precipitated chromatin, MYCN promoter PCR) (MYCN promoter region): significantly repressed MYCN expression | MYCN quantity by Western blot (N-MYC): inhibited only MYCN quantities | BET bromodomain inhibition (BET bromodomains): retain BET bromodomain inhibition | PI3K inhibition activity (PI-3 kinases): lose PI3K inhibition activity

CS(=O)(=O)CCNCc1ccc(-c2ccc3ncnc(Nc4ccc(OCc5cccc(F)c5)c(Cl)c4)c3c2)o1 [Lapatinib]
breast cancer stem cells in biopsies after treatment (breast cancer stem cells): 5 % of cells

CN(c1ccccc1CNc1nc(Nc2ccc3c(c2)CC(=O)N3)ncc1C(F)(F)F)S(C)(=O)=O [PF-431396]
BRD4-1 inhibition (BRD4-1): some degree of BRD4-1 inhibitory activity

CC(C)n1nc(-c2cc3cc(O)ccc3[nH]2)c2c(N)ncnc21 [PP-242]
BRD4-1 inhibition (BRD4-1): some degree of BRD4-1 inhibitory activity

Cc1cnc(Nc2ccc(N3CCN(C)CC3)cc2)nc1Nc1cccc(S(=O)(=O)NC(C)(C)C)c1 [TG101209]
BRD4-1 inhibition (BRD4-1): potently inhibit

Cc1cnc(Nc2ccc(OCCN3CCCC3)cc2)nc1Nc1cccc(S(=O)(=O)NC(C)(C)C)c1 [TG-101348]
BRD4-1 inhibition (BRD4-1): some degree of BRD4-1 inhibitory activity
